Several values for one entry are separate records, joined by “and”; a condition that tells them apart may be missing. Equal values may be shown once. Read-outs that look alike come from different tables or passages of the source.
Tests used:
[1] = tested on: PBMC from healthy HCMV seropositive donors; test: IFN-γ ELISPOT assay; type: cell-based, human; conditions: peptide 10 μg/ml
Procedure, shortened: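 IFN-γ-secreting T cells were counted as spots, with no-peptide control wells subtracted and means taken from triplicate wells. These spots came from healthy seropositive carriers' PBMC, 2.5×10^5 per well.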

[2] = tested on: peptide-sensitized autologous PHA blasts or LCLs; type: cell-based, human; set-up: key to CTL response: Y: Yes; ND: Not detected
CD8+ T cells = test: CD4+/CD8+ analysis of 20-mer peptides (intracellular IFN-γ staining or depletion ELISPOT); type: cell-based, human
Procedure: (§1) To determine whether a particular 20-mer peptide contained either a CD4^+- or CD8^+-restricted epitope, or both, CD4^+/CD8^+ cell depletion ELISPOT assays were performed on PBMC from healthy virus carriers. For any one experiment, three populations of cells were used: a) CD8^+-depleted PBMC, b) CD4^+-depleted PBMC, and c) non-depleted PBMC. These populations of cells were tested concurrently with the same peptides in a conventional ELISPOT assay as described herein above. DYNABEADS M-450 (Dynal, Oslo, Norway) that bound specifically to CD4^+- or CD8^+ cells were used to perform the depletion essentially according to manufacturers instructions. Beads were washed twice in cold PBS supplemented with 2% FCS using magnetic isolation. The requisite number of cells was resuspended in cold PBS supplemented with 2% FCS, added to the beads and then incubated at 4° C., in the dark, for 30 mins (CD8^+ beads) or 60 mins (CD4^+ beads). Populations were depleted of CD4^+ or CD8^+ cells using magnetic separation. After depletion, the non-attached cells were removed and washed once in growth medium, counted and used in conventional ELISPOT assay. Depleted cells were used at 1.7×10^5 cells per well and the non-depleted population was used at the standard 2.5×10^5 cells per well. After the depletion step, each respective cell population was assessed for the purity of CD4^+ and CD8^+ T cells by three-colour flow cytometry. Samples of depleted cell populations were stained with anti-CD3 antibody directly conjugated to fluorescein isothiocyanate (FITC), anti-CD4 antibody conjugated with phycoerythrin (PE) fluorochrome, and anti-CD8 antibody conjugated with Tricolor fluorochrome (described below). The percent of CD3^+/CD4^+ cells present within the CD8^+-depleted population and the percent of CD3^+/CD8^+ cells present within the CD4^+-depleted populations were assessed on FACSCalibur cytometer (Becton Dickinson). The purity of each population was greater than 90% and the results from the ELISPOT assays are expressed as the percentage of CD4+ or CD8^+ cells within the depleted populations that responded toward each peptide by producing IFN-γ.
(§2) PBMCs were incubated at 37° C. in RPMI+10% FCS with and without 10 μg/ml peptides for 6 hours. Golgiplug™ (Pharmingen, San Diego, Calif., USA) was added to the samples according to manufacturer's instructions during the second hour of incubation and cells activated with 25 ng/ml phorbol 12-myristidate 13-acetate (PMA; Sigma-Aldrich Co, St. Louis Mo.) and 1 μg/ml iomomycin (Sigma) acted as a positive control. Following the incubation, 1×10^6 cells/sample were washed and resuspended in staining buffer consisting of PBS with GolgiPlug™, 3% FCS and sodium azide. Cells were then stained with FITC conjugated anti-CD3-FITC (UCHT1, Immunotech, Marseille, France), and either Tricolor (TRI) conjugated anti-CD4 (S3.5, Caltag, Burlingame, Calif.) or anti-CD8 (3B5, Caltag) for 30 minutes, 4° C. in the dark. The cells were fixed for 20 min at 4° C. with Cytofix/Cytoperm™ (BD Biosciences) and resuspended in Perm/Wash™ permeabilization buffer (BD Biosciences) according to manufacturers protocol. Fixed cells were stained with phycoerythrin (PE) conjugated anti-human IFN-γ (B27, Pharmingen) for 30 min at 4° C. in the dark. As a negative control, cells were stained with appropriate isotype matched control antibodies. Cells were washed twice in permeabilization buffer and resuspended in staining buffer before analysis by three-colour flow cytometry on a FACSCalibur cytometer (BD Biosciences). All data analysis was carried out using FlowJo software (Tree Star, Inc. San Carlos, CA).
(§3) When using 20-mer peptides to map epitopes by ELISPOT, it is possible that some responses may be MHC class-II restricted, and not necessarily restricted through HLA class I alleles. It was evident throughout this study that some epitopes identified using ELISPOT could not be confirmed using cytotoxicity analysis. […]

CD4+ T cells = test: as above; type: cell-based, human
Procedure: as §1, §2, §3

HLA A2 = target: T1, HLA A2 (Homo sapiens, UniProt P04439, D140Y/D185E/D98H/E176V/E277Q/G131W/G231S/I119V/I121R/I166T/I218V/L300P/L318F/N151K/N90K/P208A/P217A/Q86G/Q94H/R138H/R169H/T345S); type: cell-based; conditions: HLA A2 on T2 cells; relative increase in HLA expression vs no peptide at 26° C.
T1 construct: endogenous in cells; host or cells: T2 cells

[3] = overlapping 20mer peptides, Table 4

With ATVQGQNLKYQEFFWDANDI the “ELISPOT Responses (SFC/10^6 PBMC)” value ([1]; donor epsilon) was “SC(687) SFC/10^6 PBMC”, the “ELISPOT Responses (SFC/10^6 PBMC)” value ([1]; donor five) was 226 SFC/10^6 PBMC and the “ELISPOT Responses (SFC/10^6 PBMC)” value ([1]; donor gamma) was 202 SFC/10^6 PBMC. For the same sequence, the “ELISPOT Responses (SFC/10^6 PBMC)” value ([1]; donor three) was 189 SFC/10^6 PBMC, the “ELISPOT Responses (SFC/10^6 PBMC)” value ([1]; donor twelve) was 25 SFC/10^6 PBMC and the CTL response [2, 3] was “Y”. The “Responding cells (% CD8)” value (CD8+ T cells; donor twelve) was 0% and the “Responding cells (% CD4)” value (CD4+ T cells; donor twelve) was 0.03%.

In the case of “AVGGAVASV (human cytomegalovirus gB CTL epitope peptide)”, the “ELISPOT Responses (SFC/10^6 PBMC)” value ([1]; donor seven) is reported as “SB(192) SFC/10^6 PBMC”, the “CTL response” value ([2]; predicted epitopes, Table 3) is reported as “Y” and the “MSE (MHC stabilization efficiency)” value (HLA A2) is reported as “− (− = 0-50%)”.

CSPDEIMAYAQKIFKILDEE was tested, and the “ELISPOT Responses (SFC/10^6 PBMC)” value ([1]; donor five) was “CS(1532) SFC/10^6 PBMC”, the CTL response [2] was “Y” and the “Responding cells (% CD8)” value (CD8+ T cells; donor five) was 0.4%. The “Responding cells (% CD4)” value (CD4+ T cells; donor five) was 0.53%.

For “FEQPTETPPEDLDTLSLAIE (human cytomegalovirus IE2 CTL epitope peptide)”, the “ELISPOT Responses (SFC/10^6 PBMC)” value ([1]; donor fourteen) was “RK(791) SFC/10^6 PBMC”, the CTL response [2, 3] was “Y” and the “Responding cells (% CD8)” value (CD8+ T cells; donor fourteen) was 0.35%. For the same sequence, the “Responding cells (% CD4)” value (CD4+ T cells; donor fourteen) was 0.2%.

For “GQTEPIAFV (human cytomegalovirus pp150 CTL epitope peptide)”, the “CTL activity of polyclonal CTL line” value ([2]; donor seven, effector:target ratio 10:1) was “lower CTL activity” and the “MSE (MHC stabilization efficiency)” value (HLA A2) was “+ (+ = 51-99%)”.

With IIKPGKISHIMLDVAFTSHE the “ELISPOT Responses (SFC/10^6 PBMC)” value ([1]; donor eight) was “JW(370) SFC/10^6 PBMC”, the “ELISPOT Responses (SFC/10^6 PBMC)” value ([1]; donor epsilon) was 691 SFC/10^6 PBMC and the “ELISPOT Responses (SFC/10^6 PBMC)” value ([1]; donor gamma) was 177 SFC/10^6 PBMC. For the same sequence, the “ELISPOT Responses (SFC/10^6 PBMC)” value ([1]; donor seven) was “SB(155), SFC/10^6 PBMC”, the CTL response [2, 3] was “Y” and the “Responding cells (% CD8)” value (CD8+ T cells; donor eight) was 0.05%. The “Responding cells (% CD8)” value (CD8+ T cells; donor seven) was 0.03%, the “Responding cells (% CD4)” value (CD4+ T cells; donor eight) was 0.04% and the “Responding cells (% CD4)” value (CD4+ T cells; donor seven) was 0.02%.

“IIYTRNHEV (human cytomegalovirus IE2 CTL epitope peptide)” was tested, and the “ELISPOT Responses (SFC/10^6 PBMC)” value ([1]; donor delta) was “SE(137) SFC/10^6 PBMC”, the “ELISPOT Responses (SFC/10^6 PBMC)” value ([1]; donor fifteen) was 80 SFC/10^6 PBMC and the “ELISPOT Responses (SFC/10^6 PBMC)” value ([1]; donor seven) was 369 SFC/10^6 PBMC. For the same sequence, the “peptide concentration required for half maximal lysis, fold more than NLVPMVATV and VLEETSVML epitopes respectively” value [2] was 100-500 fold, the “CTL response” value ([2]; predicted epitopes, Table 3) was “Y” and the “MSE (MHC stabilization efficiency)” value (HLA A2) was “+ (+ = 51-99%)”.

For IQIIYTRNHEVKSEVDAVRC, the “ELISPOT Responses (SFC/10^6 PBMC)” value ([1]; donor delta) was 203 SFC/10^6 PBMC, the “ELISPOT Responses (SFC/10^6 PBMC)” value ([1]; donor seven) was 288 SFC/10^6 PBMC and the CTL response [2, 3] was “Y”. The “Responding cells (% CD8)” value (CD8+ T cells; donor delta) was 0.19% and the “Responding cells (% CD4)” value (CD4+ T cells; donor delta) was 0%.

In the case of MNGQQIFLEVQAIRETVELR, the “ELISPOT Responses (SFC/10^6 PBMC)” value ([1]; donor alpha) is reported as 277 SFC/10^6 PBMC, the “ELISPOT Responses (SFC/10^6 PBMC)” value ([1]; donor two) is reported as 2985 SFC/10^6 PBMC and the CTL response [2, 3] is reported as “Y”. The “Responding cells (% CD8)” value (CD8+ T cells; donor two) was 0.48% and the “Responding cells (% CD4)” value (CD4+ T cells; donor two) was 0.26%.

With “MQLIPDDYSNTHSTRYVTVK (human cytomegalovirus gB CTL epitope peptide)” the “ELISPOT Responses (SFC/10^6 PBMC)” value ([1]; donor four) was 238 SFC/10^6 PBMC and 302 SFC/10^6 PBMC, the “ELISPOT Responses (SFC/10^6 PBMC)” value ([1]; donor seven) was “SB(157) SFC/10^6 PBMC” and the CTL response [2, 3] was “Y”. For the same sequence, the “Responding cells (% CD8)” value (CD8+ T cells; donor four) was 0.03% and the “Responding cells (% CD4)” value (CD4+ T cells; donor four) was 0.06%.

In the case of PQYSEHPTFTSQYRIQGKLE, the “ELISPOT Responses (SFC/10^6 PBMC)” value ([1]; donor delta) is reported as 980 SFC/10^6 PBMC, the “ELISPOT Responses (SFC/10^6 PBMC)” value ([1]; donor four) is reported as “MB(413) SFC/10^6 PBMC” and the “ELISPOT Responses (SFC/10^6 PBMC)” value ([1]; donor fourteen) is reported as 1393 SFC/10^6 PBMC. The CTL response [2] was “Y”, the “Responding cells (% CD8)” value (CD8+ T cells; donor delta) was 0.87% and the “Responding cells (% CD8)” value (CD8+ T cells; donor four) was 0%. The “Responding cells (% CD8)” value (CD8+ T cells; donor fourteen) was 0.96%, the “Responding cells (% CD4)” value (CD4+ T cells; donor delta) was 0% and the “Responding cells (% CD4)” value (CD4+ T cells; donor four) was 0.05%. The “Responding cells (% CD4)” value (CD4+ T cells; donor fourteen) was 1.69%.

QAIRETVELRQYDPVAALFF was tested, and the “ELISPOT Responses (SFC/10^6 PBMC)” value ([1]; donor alpha) was 102 SFC/10^6 PBMC, the “ELISPOT Responses (SFC/10^6 PBMC)” value ([1]; donor seven) was 241 SFC/10^6 PBMC and the “ELISPOT Responses (SFC/10^6 PBMC)” value ([1]; donor two) was “JD(2593) SFC/10^6 PBMC”. For the same sequence, the CTL response [2, 3] was “Y”, the “Responding cells (% CD8)” value (CD8+ T cells; donor two) was 0.33% and the “Responding cells (% CD4)” value (CD4+ T cells; donor two) was 0.28%.
